Laboratory results reported in ChEMBL document CHEMBL4665836, “Overcoming β-Lactam resistance in Pseudomonas aeruginosa using non-canonical tobramycin-based antibiotic adjuvants” (2020).
≈ marks a conversion by molar mass, not a printed value.

Columns and labels:
Type in all cases: functional
Pseudomonas aeruginosa [1] = experiment: Antibacterial activity against Pseudomonas aeruginosa PAO750 harboring mexAB-oprM/mexCD-oprJ/mexEF-oprN/mexJK/mexXY/opmH efflux deficient mutant
Pseudomonas aeruginosa [2] = experiment: Antibacterial activity against Pseudomonas aeruginosa PAO200 harboring mexAB-oprM efflux deficient mutant
Pseudomonas aeruginosa [3] = experiment: Potentiation of ceftazidime-induced antibacterial activity against carbapenem-resistant Pseudomonas aeruginosa 109084 clinical isolate assessed as fold reduction in ceftazidime MIC at 8 uM
Pseudomonas aeruginosa [4] = experiment: Potentiation of ceftazidime-induced antibacterial activity against carbapenem-resistant Pseudomonas aeruginosa 108590 clinical isolate assessed as fold reduction in ceftazidime MIC at 8 uM
Pseudomonas aeruginosa [5] = experiment: Potentiation of ceftazidime-induced antibacterial activity against carbapenem-resistant Pseudomonas aeruginosa 107092 clinical isolate assessed as fold reduction in ceftazidime MIC at 8 uM
Pseudomonas aeruginosa [6] = experiment: Potentiation of ceftazidime-induced antibacterial activity against carbapenem-resistant Pseudomonas aeruginosa 88949 clinical isolate assessed as fold reduction in ceftazidime MIC at 8 uM
Pseudomonas aeruginosa [7] = experiment: Potentiation of ceftazidime-induced antibacterial activity against carbapenem-resistant Pseudomonas aeruginosa 86052 clinical isolate assessed as fold reduction in ceftazidime MIC at 8 uM
Pseudomonas aeruginosa [8] = experiment: Potentiation of aztreonam-induced antibacterial activity against carbapenem-resistant Pseudomonas aeruginosa 109084 clinical isolate assessed as fold reduction in aztreonam MIC at 8 uM
Pseudomonas aeruginosa [9] = experiment: Potentiation of aztreonam-induced antibacterial activity against carbapenem-resistant Pseudomonas aeruginosa 108590 clinical isolate assessed as fold reduction in aztreonam MIC at 8 uM
Pseudomonas aeruginosa [10] = experiment: Potentiation of aztreonam-induced antibacterial activity against carbapenem-resistant Pseudomonas aeruginosa 107092 clinical isolate assessed as fold reduction in aztreonam MIC at 8 uM
Pseudomonas aeruginosa [11] = experiment: Potentiation of aztreonam-induced antibacterial activity against carbapenem-resistant Pseudomonas aeruginosa 88949 clinical isolate assessed as fold reduction in aztreonam MIC at 8 uM
Pseudomonas aeruginosa [12] = experiment: Potentiation of aztreonam-induced antibacterial activity against carbapenem-resistant Pseudomonas aeruginosa 86052 clinical isolate assessed as fold reduction in aztreonam MIC at 8 uM
Pseudomonas aeruginosa [13] = experiment: Potentiation of imipenem-induced antibacterial activity against carbapenem-resistant Pseudomonas aeruginosa 109084 clinical isolate assessed as fold reduction in imipenem MIC at 8 uM
Pseudomonas aeruginosa [14] = experiment: Potentiation of imipenem-induced antibacterial activity against carbapenem-resistant Pseudomonas aeruginosa 108590 clinical isolate assessed as fold reduction in imipenem MIC at 8 uM
Pseudomonas aeruginosa [15] = experiment: Potentiation of imipenem-induced antibacterial activity against carbapenem-resistant Pseudomonas aeruginosa 107092 clinical isolate assessed as fold reduction in imipenem MIC at 8 uM
Pseudomonas aeruginosa [16] = experiment: Potentiation of imipenem-induced antibacterial activity against carbapenem-resistant Pseudomonas aeruginosa 88949 clinical isolate assessed as fold reduction in imipenem MIC at 8 uM
Pseudomonas aeruginosa [17] = experiment: Potentiation of imipenem-induced antibacterial activity against carbapenem-resistant Pseudomonas aeruginosa 86052 clinical isolate assessed as fold reduction in imipenem MIC at 8 uM
Pseudomonas aeruginosa [18] = experiment: Antibacterial activity against wild type Pseudomonas aeruginosa PAO1

## O=C(O)c1cn(C2CC2)c2cc(N3CCNCC3)c(F)cc2c1=O [CIPROFLOXACIN]
Pseudomonas aeruginosa [1]
  MIC: 0.0078 µg/mL (≈ 0.0235 µM)
Pseudomonas aeruginosa [2]
  MIC: 0.0156 µg/mL (≈ 0.0471 µM)

## NC(=O)[C@@H]1CC[C@@H]2CN1C(=O)N2OS(=O)(=O)O [AVIBACTAM]
Pseudomonas aeruginosa [3]
  fold change (FC): 2
Pseudomonas aeruginosa [4]
  fold change (FC): 2
Pseudomonas aeruginosa [5]
  fold change (FC): 2
Pseudomonas aeruginosa [6]
  fold change (FC): 2
Pseudomonas aeruginosa [7]
  fold change (FC): 2
Pseudomonas aeruginosa [8]
  fold change (FC): 2
Pseudomonas aeruginosa [9]
  fold change (FC): 2
Pseudomonas aeruginosa [10]
  fold change (FC): 2
Pseudomonas aeruginosa [11]
  fold change (FC): 2
Pseudomonas aeruginosa [12]
  fold change (FC): 2

## O.O=C(NC1CCNCC1)[C@@H]1CC[C@@H]2CN1C(=O)N2OS(=O)(=O)O [RELEBACTAM]
Pseudomonas aeruginosa [13]
  fold change (FC): 2
Pseudomonas aeruginosa [14]
  fold change (FC): 2
Pseudomonas aeruginosa [15]
  fold change (FC): 2
Pseudomonas aeruginosa [16]
  fold change (FC): 2
Pseudomonas aeruginosa [17]
  fold change (FC): 2

## NC[C@H]1O[C@H](O[C@H]2[C@H](O)[C@@H](O[C@H]3O[C@H](CO)[C@@H](O)[C@H](N)[C@H]3O)[C@H](N)C[C@@H]2N)[C@H](N)C[C@@H]1O [TOBRAMYCIN]
Pseudomonas aeruginosa [1]
  MIC: 1 µg/mL (≈ 2.14 µM)
Pseudomonas aeruginosa [2]
  MIC: 1 µg/mL (≈ 2.14 µM)
Pseudomonas aeruginosa [18]
  MIC: 1 µg/mL (≈ 2.14 µM)
